Where two headings read alike, the source gives them in different places.
Columns and labels:
Cyp40 = Cyp40 (Homo sapiens, UniProt Q08752); experiment: Chymotrypsin coupled prolyl-isomerase assay; conditions: read-out: Wild-Type Cyclophilin Prolyl Isomerase Inhibition IC50 Values, Cyp40; wild-type Cyp40
Procedure, shortened: (§1)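 Steps: cyclophilin plus compound 5 min at 2–3 °C; α-chymotrypsin added, 5 min more; Suc-AAPF-AMC substrate in LiCl/trifluoroethanol injected and fluorescence followed 330 s. Finals: 5 nM enzyme, 25 µM chymotrypsin, 5 µM substrate, 0.25% DMSO.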

CypD = CypD (Homo sapiens, UniProt P30405); experiment: Chymotrypsin coupled prolyl-isomerase assay; conditions: for IC50: read-out: Wild-Type Cyclophilin Prolyl Isomerase Inhibition IC50 Values, CypD, wild-type CypD
Chain of CypD (P30405 45-207): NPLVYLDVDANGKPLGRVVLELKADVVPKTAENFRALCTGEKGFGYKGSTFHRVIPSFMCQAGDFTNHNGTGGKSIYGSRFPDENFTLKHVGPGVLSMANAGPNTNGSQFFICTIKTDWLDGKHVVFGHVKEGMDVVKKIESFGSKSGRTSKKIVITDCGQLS

PPWD1 = biological target: T1, PPWD1 (Homo sapiens, UniProt Q96BP3); experiment: Chymotrypsin coupled prolyl-isomerase assay; format: biochemical; conditions: wild-type PPWD1; read-out: Wild-Type Cyclophilin Prolyl Isomerase Inhibition IC50 Values, PPWD1
T1 construct: PPWD1 (UniProtKB Entry Q96BP3: residues 473–646); host or cells: E. coli BL21(DE3)
T1 sequence (Q96BP3 473-646): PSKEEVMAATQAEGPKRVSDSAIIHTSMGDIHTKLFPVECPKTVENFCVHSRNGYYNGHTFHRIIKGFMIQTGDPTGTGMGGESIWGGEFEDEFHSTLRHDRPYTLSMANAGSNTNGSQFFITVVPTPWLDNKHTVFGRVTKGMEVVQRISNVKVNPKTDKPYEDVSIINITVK

CypB = biological target: T2, CypB (Homo sapiens, UniProt P23284); experiment: biochemical
T2 construct: PPIB (UniProtKB Entry P23284: residues 34–216); His6 with TEV site (2BT vector leader) (N); made in house; host or cells: E. coli BL21(DE3)
T2 sequence (P23284 34-216): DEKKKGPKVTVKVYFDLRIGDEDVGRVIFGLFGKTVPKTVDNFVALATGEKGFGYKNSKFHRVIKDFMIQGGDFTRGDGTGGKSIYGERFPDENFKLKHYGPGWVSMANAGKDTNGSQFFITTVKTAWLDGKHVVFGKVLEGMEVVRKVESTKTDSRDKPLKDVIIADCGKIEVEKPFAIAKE
Procedure, shortened: as §1

NKTR = biological target: T3, NKTR (Homo sapiens, UniProt P30414); experiment: Chymotrypsin coupled prolyl-isomerase assay; format: biochemical; conditions: wild-type NKTR; read-out: Wild-Type Cyclophilin Prolyl Isomerase Inhibition IC50 Values, NKTR
T3 construct: NKTR (UniProtKB Entry P30414: residues 7–179); host or cells: E. coli BL21(DE3)
T3 sequence (P30414 7-179): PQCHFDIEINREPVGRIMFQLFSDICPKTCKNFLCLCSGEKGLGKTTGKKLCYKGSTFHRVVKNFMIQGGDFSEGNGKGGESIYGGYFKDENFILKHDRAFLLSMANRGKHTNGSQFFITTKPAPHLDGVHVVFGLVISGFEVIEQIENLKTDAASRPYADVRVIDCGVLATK

PPIL1 = biological target: T4, PPIL1 (Homo sapiens, UniProt Q9Y3C6); experiment: Chymotrypsin coupled prolyl-isomerase assay; format: biochemical; conditions: wild-type PPIL1; read-out: Wild-Type Cyclophilin Prolyl Isomerase Inhibition IC50 Values, PPIL1
T4 construct: PPIL1 (UniProtKB Entry Q9Y3C6: residues 1–166); made in house; host or cells: E. coli BL21(DE3)
T4 sequence (Q9Y3C6 1-166): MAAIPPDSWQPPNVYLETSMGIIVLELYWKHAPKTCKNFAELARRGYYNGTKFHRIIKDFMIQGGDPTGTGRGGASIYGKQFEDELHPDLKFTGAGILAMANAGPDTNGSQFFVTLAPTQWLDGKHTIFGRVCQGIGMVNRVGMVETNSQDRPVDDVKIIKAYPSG

[1] = wild-type CypB, read-out: Wild-Type Cyclophilin Prolyl Isomerase Inhibition IC50 Values, CypB

Chain of Cyp40 (Q08752 1-183): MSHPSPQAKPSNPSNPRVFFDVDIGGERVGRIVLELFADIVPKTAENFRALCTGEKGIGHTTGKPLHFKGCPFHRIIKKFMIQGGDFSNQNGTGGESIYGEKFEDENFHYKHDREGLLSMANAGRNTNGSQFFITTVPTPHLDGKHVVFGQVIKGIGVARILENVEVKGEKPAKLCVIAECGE

IC50 (Cyp40) [µM]	CypD prolyl-isomerase inhibition (in words) (CypD)	IC50 (CypD) [nM]	IC50 (PPWD1) [µM]	IC50 (CypB; [1]) [nM]	IC50 (NKTR) [µM]	IC50 (PPIL1) [µM]	IC50 (CypB; prolyl-isomerase inhibition, 5 nM cyclophilin, read-out: IC50 CypB) [nM]	Compound
> 10	do not inhibit CypD in vitro	> 10000	> 10	> 10000	> 10	> 10	–	C[N+]1=C(C=CC=CC=C2N(CCCCCC(=O)NCCNC(=O)C3CCNC(=O)C=CC(=O)N4CCCC(Cc5ccccc5)(C4)C(=O)NC(Cc4ccc(-c5ccc(CC(C(=O)O)C(=O)O)cc5)cc4)C(=O)NCc4ccccc4CC(=O)N3)c3ccccc3C2(C)C)C(C)(C)c2ccccc21 (centres unmarked) [*B52-Cy5]
> 2	–	29	> 2	1500	> 2	> 2	~1500	C[N+]1=C(C=CC=CC=C2N(CCCCCC(=O)NCCNC(=O)C3CCNC(=O)C=CC(=O)N4CCCC(Cc5ccccc5)(C4)C(=O)NC(Cc4ccc(-c5ccc(C(CC(=O)O)CC(=O)O)cc5)cc4)C(=O)NCc4ccccc4CC(=O)N3)c3ccccc3C2(C)C)C(C)(C)c2ccccc21 (centres unmarked) [Compound B53-Cy5]

Source: paper PMC9596378, “Discovery and molecular basis of subtype-selective cyclophilin inhibitors” (Nature Chemical Biology, 2022)
